# Reference: US20140088066A1, “PLATINUM COMPOUNDS, COMPOSITIONS AND METHODS FOR THE TREATMENT OF CANCER” (Blend Therapeutics, priority 2012, published 2014)
# Like-named read-outs stand apart in the source and are kept apart here.
# Legend:
# [1] = physchem
# Experimental: Nanoparticle formulation of compound of Formula XVI. […] (cold) or at 20-25° C. (warm) and stored refrigerated or frozen with 10% sucrose.
# [2] = physchem; remark: listed apart in the source
# [3] = Aqueous solubility
Compound,saturated solubility in ethyl acetate (EA) [1],solubility ([1]; organic solvent or mixture) [µg/mL],solubility [2] [µg/mL],aqueous solubility [3] [mg/mL]
"CCCCCCCCCCCCCCCCCC(=O)[O][Pt]([NH2])([NH2])[n+]1cc2ccccc2c2ccccc21 [Compound 27, phenantriplatin (stearate) nitrate]",low,1500,< 100,
phenanthriplatin [phenantriplatin],,,,5
